Values after ≈ are worked out from the molar mass of the structure shown. Values joined by “and” are separate entries in the source; they are usually repeats but may differ in a detail not shown here. Equal values may be shown once.
Legend:
[1] = test system: Alternaria solani; assay: in vitro 96-well micro-titration test on Alternaria solani spores; type: cell-based
[2] = test system: Pythium ultimum; assay: in vitro test on P. ultimum
Experimental: The evaluations were performed with a 96-well micro-titration test to evaluate the in vitro fungicidal activity of each solution.
Three repetitions (wells) were carried out. The value of the concentration making it possible to inhibit the growth of each pathogen (EC50) to 50% was determined using the optical density measurement.

[3] = test system: Fusarium graminearum; assay: microbe, parasite or virus in culture; type: cell-based
[4] = test system: Septoria tritici (Zymoseptoria tritici); assay: in vitro 96-well micro-titration test on Septoria tritici / Zymoseptoria tritici; type: cell-based
[5] = test system: Plasmopara viticola; assay: in vitro antifungal action of single ingredients on Plasmopara viticola; type: cell-based
Excerpt: In Vitro Results Showing the Syngergistic Action of Yucca Juice with the Other Compounds of the Composition According to the Invention on A. solani, Z. tritici, and Plasmopara viticola,
The following tables show in vitro the synergistic antifungal action between yucca juice and the other compounds of the composition of the invention on various pathogens. The concentrations given are as a mass %. The solutions tested as aqueous solutions.
Mo denotes sodium molybdate, Bo denotes boron ethanolamine.

Oc1ccc(/C=C/c2cc(O)cc(O)c2)cc1 [resveratrol, 5-[(E)-2-(4-hydroxyphenyl)-ethenyl]benzene-1,3-diol]
inhibition (%) of A. solani growth ([1]; 0.0064 μg/ml or ppm in water): 6.20%
inhibition (%) of A. solani growth ([1]; 0.032 μg/ml or ppm in water): 13.60%
inhibition (%) of A. solani growth ([1]; 0.16 μg/ml or ppm in water): 13.70%
inhibition (%) of A. solani growth ([1]; 0.8 μg/ml or ppm in water): 16.10%
inhibition (%) of A. solani growth ([1]; 4 μg/ml or ppm in water): 11.20%
inhibition (%) of A. solani growth ([1]; 20 μg/ml or ppm in water): 28.70%
inhibition (%) of A. solani growth ([1]; 100 μg/ml or ppm in water): 54.7%
inhibition of P. ultimum ([2]; 0.0064 μg/ml or ppm): −8.20%
inhibition of P. ultimum ([2]; 0.032 μg/ml or ppm): −0.30%
inhibition of P. ultimum ([2]; 0.16 μg/ml or ppm): 0.00%
inhibition of P. ultimum ([2]; 0.8 μg/ml or ppm): −1.70%
inhibition of P. ultimum ([2]; 4 μg/ml or ppm): 23.30%
inhibition of P. ultimum ([2]; 20 μg/ml or ppm): 72.40%
inhibition of P. ultimum ([2]; 100 μg/ml or ppm): 100% and 101.30%
EC50 ([2]; Globisporangium ultimum, read-out: EC50 (μg/ml or ppm)): 8.89 µg/mL (≈ 38.9 µM)
EC95 (μg/ml or ppm) ([2]; P. ultimum, Table 14): 73.85 μg/ml or ppm
inhibition of Fusarium graminearum ([3]; 0.0064 μg/ml or ppm): 0.30%
inhibition of Fusarium graminearum ([3]; 0.032 μg/ml or ppm): −2.90%
inhibition of Fusarium graminearum ([3]; 0.16 μg/ml or ppm): −3.90%
inhibition of Fusarium graminearum ([3]; 0.8 μg/ml or ppm): −1.60%
inhibition of Fusarium graminearum ([3]; 4 μg/ml or ppm): −3.80%
inhibition of Fusarium graminearum ([3]; 20 μg/ml or ppm): 18.20%
inhibition of Fusarium graminearum ([3]; 100 μg/ml or ppm): 53.30%
inhibition of Fusarium graminearum ([3]; 100 μg/ml or ppm, listed as Resveratrol (trans)): more than 50%
EC95 (μg/ml or ppm) ([3]; Fusarium graminearum, Table 9): >100 μg/ml or ppm
EC50 ([3]; Fusarium graminearum, read-out: EC50 (μg/ml or ppm)): 29.5 µg/mL (≈ 129 µM)
% inhibition of pathogen growth (S. tritici) ([4]; 0.0064 μg/ml or ppm): 0.00%
% inhibition of pathogen growth (S. tritici) ([4]; 0.032 μg/ml or ppm): −0.40%
% inhibition of pathogen growth (S. tritici) ([4]; 0.16 μg/ml or ppm): −0.40%
% inhibition of pathogen growth (S. tritici) ([4]; 0.8 μg/ml or ppm): 0.60%
% inhibition of pathogen growth (S. tritici) ([4]; 4 μg/ml or ppm): −2.60%
% inhibition of pathogen growth (S. tritici) ([4]; 20 μg/ml or ppm): −2.00%
% inhibition of pathogen growth (S. tritici) ([4]; 100 μg/ml or ppm): 104.90%
EC50 ([4]; Zymoseptoria tritici, S. tritici, Table 12, read-out: EC50 (μg/ml or ppm)): 72 µg/mL (≈ 315 µM)
concentration showing efficacy against Septoria tritici ([4]; in vitro): 100 ppm

boron ethanolamine [Bo 0.49%]
EC95 (%) ([1]; A. solani, Table 22, ingredient alone in water): >10%
inhibition of A. solani, ingredient alone in water ([1]; Concentration 0.05% mass of the stated aqueous solution): 6.5%
inhibition of A. solani, ingredient alone in water ([1]; Concentration 0.50%): 0.9%
inhibition of A. solani, ingredient alone in water ([1]; Concentration 1.00%): −0.5%
inhibition of A. solani, ingredient alone in water ([1]; Concentration 2.00%): −2.6%
inhibition of A. solani, ingredient alone in water ([1]; Concentration 3.00%): 2.4%
inhibition of A. solani, ingredient alone in water ([1]; Concentration 6.00%): −3.6%
inhibition of A. solani, ingredient alone in water ([1]; Concentration 10.00%): −3.3%
in vitro activity against Plasmopara viticola, ingredient alone in water ([5]; Concentration 0.05%): 17.33%
in vitro activity against Plasmopara viticola, ingredient alone in water ([5]; Concentration 0.50%): 68.80%
in vitro activity against Plasmopara viticola, ingredient alone in water ([5]; Concentration 1.00%): 84.60%
in vitro activity against Plasmopara viticola, ingredient alone in water ([5]; Concentration 2.00%): 90.99%
in vitro activity against Plasmopara viticola, ingredient alone in water ([5]; Concentration 3.00%): 95.55%
in vitro activity against Plasmopara viticola, ingredient alone in water ([5]; Concentration 6.00%): 98.96%
in vitro activity against Plasmopara viticola, ingredient alone in water ([5]; Concentration 10.00%): 99.00%
inhibition of Z. tritici, ingredient alone in water ([4]; Concentration 0.05%): 8.6%
inhibition of Z. tritici, ingredient alone in water ([4]; Concentration 0.50%): 7.6%
inhibition of Z. tritici, ingredient alone in water ([4]; Concentration 1.00%): 5.3%
inhibition of Z. tritici, ingredient alone in water ([4]; Concentration 2.00%): −1.6%
inhibition of Z. tritici, ingredient alone in water ([4]; Concentration 3.00%): −0.8%
inhibition of Z. tritici, ingredient alone in water ([4]; Concentration 6.00%): −4.3%
inhibition of Z. tritici, ingredient alone in water ([4]; Concentration 10.00%): −1.0%

Source: US20260076372A1, “SPRAYABLE ANTIFUNGAL COMPOSITION FOR USE IN THE FIELD OF AGRICULTURE, AND ASSOCIATED METHOD AND USE” (GAIAGO, priority 2022, published 2026)
